Test results: patent publication US20100305098A1, “METHODS OF USE” (priority 2007, published 2010)

What was measured:
[1] = test system: CAIA mouse; assay: Suppression of arthritis development in CAIA; type: in vivo; settings: once daily PO day 0 to day 7
Description: Suppression of arthritis development in CAIA. BALB/c mice were injected i.v. with 1 mg of anti-type II collagen antibody at day 0, and 3 days later 25 μg of LPS was injected i.p. with active compound and methotrexate (MTX) was given once daily PO from day 0 to day 7. Arthritis score and body weight was monitored over the course of study.

[2] = test system: Naive CD4 T cells; assay: Mouse Th1 differentiation assay; type: cell-based; settings: for effect on Th1 differentiation: added during Th1 differentiation, 3 days
Description: In vitro T cell assays. Naive CD4^+ T cells were purified from spleens of either BALB/c or D011.10 mice by Robosep as described by the manufacture. For BALB/c mice, 1×10^5 of CD4^+ T cells were cultured for 3-6 days in a 96-well plate in 100 μl of complete RPMI medium (Cellgro) containing either 10% of regular fetal bovine serum (Hyclone) or charcoal stripped FBS (Hyclone) (when exogenous PGE2 or EP4 agonists were added to the culture) under either neutral condition (1 μg/ml of plate-bound anti-CD3+1 μg/ml of soluble anti-CD28+10 ng/ml of mouse IL-2) or under Th1 promoting condition (neutral+5 ng/ml of mouse IL-12+10 μg/ml of anti-IL-4) or under Th2 differentiation condition (neutral+10 ng/ml of mouse IL-4+10 μg/ml of […]). IFNγ or IL-4 in culture supernatants were detected by ELISA. Cell pellets were used to measure cell proliferation with either Alamar blue or CellTiter-Glo reagents according to the instructions of the manufacture. For D011.10 mice, mitomycin C treated splenocytes from BALB/c mice were used as antigen presenting cells and co-cultured with naive CD4^+ T cells in 5 to 1 ratio (5×10^5 of mitomycin C treated splenocytes in 100 μl medium+1×10^5 CD^4 T cells in 100 μl medium) and stimulated with OVA peptide (0.3 ng/ml) under either neutral, Th1 or Th2 promoting conditions as described above. EP4 agonists, antagonists or anti-PGE2 Ab were added during Th cell differentiation.
To investigate whether EP4 activation plays a role in Th1 differentiation, the effect of PGE2 or EP4 agonist and anti-PGE2 antibody was examined in a mouse Th1 differentiation assay. Naive CD4 T cells were differentiated with Th1 promoting agents for 3 days. Th1 cytokine IFNγ in culture supernatants was measured by ELISA. Cell proliferation was measured by Alamar blue assay. PGE2 or EP4 agonist PGE1-OH was added during Th1 differentiation.

[3] = test system: activated human MoDCs; assay: Human MoDC IL-23 secretion assay; type: cell-based; settings: PGE1-OH (10 nM); LPS/R-848 activated human MoDCs, 24 h; read-out: IC50 (Ave. of two experiments), inhibiting PGE1-OH enhanced IL-23 production
Description: In vitro human monocytes derived DC assay. CD14^+ cells were purified from human PBMCs using Miltenyi CD14 microbeads, and differentiated with human GM-CSF (500 U/ml)+human IL-4 (500 U/ml) in complete RPMI medium containing 10% charcoal-stripped FBS for […]. The unattached imDCs were stimulated with LPS (10 ng/ml)+R-848 (2.5 μg/ml) with or without addition of EP4 agonist/antagonist or anti-PGE2 Ab at the concentrations indicated for 24 h. IL-23 in culture supernatants were measured by ELISA (eBioscience).
Human CD14^+ monocytes were differentiated into imDCs with GM-CSF plus IL-4 for 7 days and re-stimulated with LPS/R-848 in the presence or absence of exogenous PGE1-OH (1-100 nM) and with and without ER-819762 (FIG. 13) or ER-819924 or anti-PGE2 Ab (FIG. 14) for 24 h. IL-23 secretion in culture supernatants was measured by ELISA. […] IC50 values of representative compounds in human MoDC IL-23 secretion assay.

[4] = molecular target: human T-bet (Homo sapiens, UniProt Q9UL17); assay: HEKT-bet-luc assay (normalized); type: cell-based; settings: reference compound used for normalization; read-out: established potency of the reference compound (IC50)
human T-bet, sequence (Q9UL17 whole entry): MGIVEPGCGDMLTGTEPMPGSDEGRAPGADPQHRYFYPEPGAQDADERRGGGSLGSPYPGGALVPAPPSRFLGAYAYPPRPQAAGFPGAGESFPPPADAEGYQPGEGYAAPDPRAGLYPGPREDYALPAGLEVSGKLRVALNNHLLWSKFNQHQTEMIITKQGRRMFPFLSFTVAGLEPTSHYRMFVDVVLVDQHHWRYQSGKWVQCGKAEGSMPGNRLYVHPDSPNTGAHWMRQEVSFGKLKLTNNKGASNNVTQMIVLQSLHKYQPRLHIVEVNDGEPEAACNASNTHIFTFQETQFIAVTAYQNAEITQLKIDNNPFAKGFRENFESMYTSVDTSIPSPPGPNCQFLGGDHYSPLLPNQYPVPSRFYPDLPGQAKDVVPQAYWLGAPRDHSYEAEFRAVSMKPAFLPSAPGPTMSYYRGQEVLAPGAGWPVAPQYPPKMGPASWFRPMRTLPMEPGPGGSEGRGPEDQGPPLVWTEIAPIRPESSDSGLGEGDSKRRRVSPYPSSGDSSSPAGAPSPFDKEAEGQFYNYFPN
Description: HEKT-bet-luc assay: This assay measures a T-bet dependent reporter (luciferase) activity in engineered HEK cells that express a human T-bet and a T-box responsive element driving luciferase reporter. HEKT-bet cells were plated at 2×10^4/well in 96-well plate and compound was added into cell culture for 24 hours. Luciferase activity was measured by adding 50 μl of Steady-Glo reagent (Promega) and samples were read in Victor V reader (PerkinElmer). The activity of compound was determined by comparing compound treated samples to non-compound treated vehicle controls. The IC50 values were calculated utilizing a maximum value corresponding to the amount of luciferase in the absence of a test compound and a minimum value corresponding to a test compound value obtained at maximum inhibition.
Determination of Normalized HEKT-bet IC50 values: Compounds were assayed in microtiter plates. […] The un-normalized IC50 value for a particular compound was divided by the IC50 value determined for the reference compound in the same microtiter plate to provide a relative potency value. […]
Exemplary compounds of the present invention were assayed according to the methods set forth above in the HEKT-bet-luc assay described above. Table 2 below set forth exemplary compounds of the present invention having an IC50 of up to the indicated amount (μM) as determined by the normalized HEKT-bet-luc assay described above.

[5] = molecular target: T1, EP4 (Homo sapiens, UniProt P35408); assay: PGE2 induced CRE-PLAP reporter assay in SE302 cells; type: cell-based; settings: tested at 0.3 nM to 10 μM
T1 construct: SE302 cells that express endogenous EP4; endogenous in cells; host or cells: SE302 cells
T1 sequence (P35408 whole entry): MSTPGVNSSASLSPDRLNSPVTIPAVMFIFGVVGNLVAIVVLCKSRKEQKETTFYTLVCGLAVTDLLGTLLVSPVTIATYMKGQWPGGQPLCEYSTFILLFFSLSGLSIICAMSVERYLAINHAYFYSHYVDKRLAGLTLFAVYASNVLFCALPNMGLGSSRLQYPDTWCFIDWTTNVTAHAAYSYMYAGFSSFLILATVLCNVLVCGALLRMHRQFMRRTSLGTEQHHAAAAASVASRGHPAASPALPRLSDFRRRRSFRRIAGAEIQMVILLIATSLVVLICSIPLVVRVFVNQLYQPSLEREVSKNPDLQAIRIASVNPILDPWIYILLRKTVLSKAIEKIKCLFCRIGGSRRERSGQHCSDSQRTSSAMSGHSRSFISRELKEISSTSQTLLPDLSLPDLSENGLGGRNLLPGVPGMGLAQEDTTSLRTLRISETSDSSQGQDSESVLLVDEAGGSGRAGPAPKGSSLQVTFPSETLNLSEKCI
Description: CRE-PLAP reporter assay. SE302 cells that express endogenous EP4 were stimulated with PGE2 in the presence or absence of ER-819762 for overnight, and PLAP activity was measured.

[6] = test system: activated mouse CD4+ T cells; assay: IL-17 production in activated mouse CD4+ T cells; type: cell-based; settings: anti-CD3/anti-CD28 stimulated CD4+ T cells
Description: To study the effect of EP4 agonist/antagonist on IL-17 production, total CD4^+ T cells from C57BL/6 mice were activated with plate-bound anti-CD3 (2 μg/ml) plus soluble anti-CD 28 (2 μg/ml) in the presence or absence of IL-23 (10 ng/ml) or EP4 agonist/antagonists at indicated concentrations for 3-5 days. Culture supernatants were analyzed by IL-17 ELISA, and cell pellets were used to measure cell proliferation with CellTite-Glo reagents.
To investigate whether EP4 also plays a role in a Th17 response, the effect of EP4 activation by PGE2 or EP4 agonist on IL-17 production in activated mouse CD4^+ T cells was examined. Total CD4^+ T cells were stimulated with anti-CD3/anti-CD28 with and without IL-23 and in the presence or absence of PGE2 or EP4 agonist PGE1-OH (0.1 nM to 1000 nM) for 3-5 days. IL-17 in culture supernatants was measured by ELISA and cell proliferation was measured by CellTiter-glo.

CN(Cc1cnc2nc(N)nc(N)c2n1)c1ccc(C(=O)N[C@@H](CCC(=O)O)C(=O)O)cc1 [methotrexate]
activity in CAIA model [1]: not particularly active

CCCCC[C@H](O)/C=C/[C@H]1[C@H](O)CC(=O)[C@@H]1C/C=C\CCCC(=O)O [PGE2, prostaglandin E2]
effect on Th1 differentiation [2]: enhanced Th1 differentiation

CCN1C(=O)N2Cc3cc(OC)cc(OC)c3[C@@H](C)C=C2C12CCN(Cc1c[nH]nc1C)CC2 [ER-819826-01]
IC50 [3]: 185 nM

COCCN1C(=O)N2Cc3cc(OC)cc(OC)c3C(C)(C)C=C2C12CCN(Cc1cc(OC)cc(OC)c1)CC2 [ER-819544]
IC50 [4]: 35 nM

CCCCC[C@H](O)/C=C/[C@H]1[C@H](O)CC(=O)[C@@H]1CCCCCCCO [PGE1-OH, PGE1-alcohol]
effect on Th1 differentiation [2]: enhanced Th1 differentiation

CCN1C(=O)N2Cc3cc(OC)cc(OC)c3[C@@H](C)C=C2C12CCN(Cc1nc(C)oc1C)CC2 [ER-811283-01]
IC50 [3]: 57 nM

CCN1C(=O)N2Cc3cc(OC)cc(OC)c3[C@@H](C)C=C2C12CCN(Cc1cc(C)cc(C)c1)CC2 [ER-819762]
inhibition of PGE2 induced CRE-PLAP reporter activity [5]: potent inhibitory activities
IC50 [3]: 40 to 200 nM
added activity to anti-PGE2 Ab in Th1 differentiation ([2]; combination with anti-PGE2 Ab): no added activity
effect on PGE2/PGE1-OH enhanced IL-17 production [6]: suppresses

CCN1C(=O)N2Cc3cc(OC)cc(OC)c3[C@@H](C)C=C2C12CCN(Cc1cc(C)cc(C)c1)CC2 [ER-819762-01]
effect on PGE2/PGE1-OH enhanced IL-17 production [6]: suppressed the activity

CCN1C(=O)N2Cc3cc(OC)cc(OC)c3[C@@H](C)C=C2C12CCN(Cc1cccn1C)CC2 [ER-819924]
inhibition of PGE2 induced CRE-PLAP reporter activity [5]: potent inhibitory activities
IC50 [3]: < 200 nM
